Laboratory results reported in BigSolDB 2.1.

CC1(C)COP(=O)(O)OC1c1ccccc1Cl (centres undefined)
solubility (mole fraction)
Details	in acetic acid	in ethanol	in isopropanol	in methanol	in tert-butanol	in water
278.15 K	–	0.00426	0.0114	0.00445	–	0.000124
283.15 K	–	0.00473	0.0135	0.00519	–	0.000123
288.15 K	–	0.00536	0.016	0.00572	–	0.000136
293.15 K	0.00131	0.00614	0.0176	0.00644	–	0.000157
298.15 K	0.00156	0.00685	0.0207	0.00713	–	0.000162
303.15 K	0.00186	0.00783	0.0251	0.00809	0.0228	0.000164
308.15 K	0.00221	0.00884	0.029	0.00892	0.0281	0.000166
313.15 K	0.0025	0.00995	0.0342	0.0105	0.0313	0.000168
318.15 K	0.00277	0.0121	0.0391	0.0125	0.0359	0.00017
323.15 K	0.00341	0.0135	0.0448	0.0145	0.0398	–
328.15 K	0.0039	–	–	–	0.0469	–
333.15 K	0.00449	–	–	–	0.051	–
338.15 K	0.00523	–	–	–	0.0574	–
343.15 K	–	–	–	–	0.0629	–
348.15 K	–	–	–	–	0.0691	–
